Experimental data published in patent US20230339952A1, “MACROCYCLIC HETEROCYCLES AND USES THEREOF” (Kumquat Biosciences Inc., priority 2022, published 2023).
Like-named read-outs stand apart in the source and are kept apart here.

Assays:
[1] = tested on: NCI-H1975 (ATCC CRL-5908) cell line comprising an EGFR T790M L858R double mutation; experiment: EGFR-SOS cellular inhibition assay (CellTiter-Glo cell proliferation); type: cell-based; conditions: Homo sapiens
Protocol: A CellTiter-Glo (CTG) luminescent based assay (Promega) is used to assess growth of the cells, as a measurement of the ability of the compounds herein to inhibit EGFR signaling in the cells. […] The day after plating, cells are treated with a dilution series (e.g., a 9 point 3-fold dilution series) of the compounds herein (e.g., approximately 125 μL final volume per well).

SOS1 = SOS1 (Homo sapiens (Human), UniProt Q07889); experiment: Ras-SOS interaction assay (HTRF), K-Ras G13D utilized; type: binding; conditions: K-Ras G13D
[2] = tested on: MIA PaCa-2 cells (K-Ras G12C); experiment: Ras-SOS cellular growth inhibition assay (CellTiter-Glo); conditions: Homo sapiens, MIA PaCa-2, 120 h, read-out: IC50 in inhibiting MIA PaCa-2 cell growth
Protocol: A CellTiter-Glo (CTG) luminescent based assay (Promega) is used to assess growth of the cells, as a measurement of the ability of the compounds herein to inhibit Ras signaling in the cells. […] The day after plating, cells are treated with a dilution series (e.g., a 9 point 3-fold dilution series) of the compounds herein (e.g., approximately 125 μL final volume per well). Cell viability can be monitored (e.g., approximately 5 days later) according to the manufacturer's recommended instructions, where the CellTiter-Glo reagent is added (e.g., approximately 65 μL), vigorously mixed, covered, and placed on a plate shaker (e.g., approximately for 20 min) to ensure sufficient cell lysis prior to assessment of luminescent signal. The IC50 values are determined using the four-parameter fit. The resulting IC50 value is a measurement of the ability of the compounds herein to reduce cell growth of Ras-driven cells as representative tumor cells.

[3] = 120 h, NCI-H1975 cell proliferation, approximately 5 days, read-out: H1975 IC50
[4] = NCI-H1975, EGFR T790M L858R double mutation, read-out: IC50 in inhibiting growth of NCI-H1975 cell line
[5] = read-out: IC50 value against SOS1

SOS1, sequence (Q07889 564-1049): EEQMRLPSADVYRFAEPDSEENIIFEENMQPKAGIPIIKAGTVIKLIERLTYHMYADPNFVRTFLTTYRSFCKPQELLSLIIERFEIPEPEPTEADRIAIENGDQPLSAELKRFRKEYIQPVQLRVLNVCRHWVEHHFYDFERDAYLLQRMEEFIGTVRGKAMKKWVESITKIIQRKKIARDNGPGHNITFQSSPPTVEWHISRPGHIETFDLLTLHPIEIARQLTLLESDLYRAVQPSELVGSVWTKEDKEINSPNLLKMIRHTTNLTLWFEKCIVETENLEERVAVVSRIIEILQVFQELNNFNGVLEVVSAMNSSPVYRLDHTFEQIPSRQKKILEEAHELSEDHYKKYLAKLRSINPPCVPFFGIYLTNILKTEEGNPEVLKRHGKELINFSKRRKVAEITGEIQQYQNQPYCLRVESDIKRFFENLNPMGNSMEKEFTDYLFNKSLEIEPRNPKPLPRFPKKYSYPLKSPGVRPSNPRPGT

| IC50 [1, 3] [nM] | IC50 [1, 4] [nM] | IC50 (SOS1; read-out: SOS1 IC50) [nM] | IC50 [2] [nM] | IC50 (SOS1; [5]) [nM] | SMILES |
| --- | --- | --- | --- | --- | --- |
| < 1000 |  | 100 to 5000 | < 1000 |  | Cc1nc2c3cc(C4(C#N)CC4)c(=O)n(c3n1)CCCCCCCCC(C)(O)C(F)(F)c1cccc(c1)[C@@H](C)N2 (stereo partly drawn) [Compound 9, 1-((3R)-5,5-difluoro-6-hydroxy-1^2,3,6-trimethyl-1^7-oxo-1^7,1^8-dihydro-2-aza-1(4,8)-pyrido[2,3-d]pyrimidina-4(1,3)-benzenacyclotetradecaphane-1^6-yl)cyclopropane-1-carbonitrile] |
| < 1000 | < 500 | < 100 | < 1000 | < 50 | C[C@H]1Nc2ncnc3c2cc(C2(C#N)CC2)c(=O)n3CCCCCCCN2CCC(CC2)C(F)(F)c2cccc1c2 [Compound 61, 1-((4R)-2,2-difluoro-4-methyl-6^7-oxo-6^7,6^8-dihydro-5-aza-6(4,8)-pyrido[2,3-d]pyrimidina-1(4,1)-piperidina-3(1,3)-benzenacyclotridecaphane-6^6-yl)cyclopropane-1-carbonitrile] |
| < 1000 | < 500 | < 100 | < 1000 | < 50 | C[C@H]1Nc2ncnc3c2cc(C2(C#N)CC2)c(=O)n3CCCCC/C=C\CN2CCC(CC2)C(F)(F)c2cccc1c2 [Compound 120, 1-((4R,Z)-2,2-difluoro-4-methyl-6^7-oxo-6^7,6^8-dihydro-5-aza-6(4,8)-pyrido[2,3-d]pyrimidina-1(4,1)-piperidina-3(1,3)-benzenacyclotetradecaphan-12-en-6^6-yl)cyclopropane-1-carbonitrile] |

The remaining lines, values behind:

| SMILES | IC50 [1, 3] [nM] | IC50 [1, 4] [nM] | IC50 (SOS1; read-out: SOS1 IC50) [nM] | IC50 [2] [nM] | IC50 (SOS1; [5]) [nM] |
| --- | --- | --- | --- | --- | --- |
| C[C@H]1Nc2nc(=O)n(c3c2cc(C2(C#N)CC2)c(=O)n3C)CC/C=C\CN2CCC(CC2)C(F)(F)c2cccc1c2 [Compound 6, 1-((6^3E,4R,9Z)-2,2-difluoro-6^8,4-dimethyl-6^2,6^7-dioxo-6^1,6^2,6^7,6^8-tetrahydro-5-aza-6(4,1)-pyrido[2,3-d]pyrimidina-1(4,1)-piperidina-3(1,3)-benzenacycloundecaphan-9-en-6^6-yl)cyclopropane-1-carbonitrile] | < 1000 | < 500 | < 100 | < 1000 |  |
| C[C@H]1Nc2ncnc3c2cc(C2(C#N)CC2)c(=O)n3CCCCCCCCN2CCC(CC2)C(F)(F)c2cccc1c2 [Compound 54, 1-((4R)-2,2-difluoro-4-methyl-6^7-oxo-6^7,6^8-dihydro-5-aza-6(4,8)-pyrido[2,3-d]pyrimidina-1(4,1)-piperidina-3(1,3)-benzenacyclotetradecaphane-6^6-yl)cyclopropane-1-carbonitrile] | < 1000 | < 500 |  | < 1000 |  |
| Cc1nc2c3cc(C4CCS(=O)(=O)CC4)c(=O)n(c3n1)CCCCC/C=C\CC(C)(O)C(F)(F)c1cccc(c1)[C@@H](C)N2 (stereo partly drawn) [Compound 101, (3R,Z)-1^6-(1,1-dioxidotetrahydro-2H-thiopyran-4-yl)-5,5-difluoro-6-hydroxy-1^2,3,6-trimethyl-1^7,1^8-dihydro-2-aza-1(4,8)-pyrido[2,3-d]pyrimidina-4(1,3)-benzenacyclotetradecaphan-8-en-1^7-one] | < 1000 | < 500 | < 100 | < 1000 | < 50 |
| C[C@H]1Nc2ncnc3c2cc(C2(C#N)CCS(=O)(=O)CC2)c(=O)n3CCCCCCN2CC(CCC(F)(F)c3cccc1c3)C2 [Compound 213, 4-((3R)-5,5-difluoro-3-methyl-1^7-oxo-1^7,1^8-dihydro-2-aza-1(4,8)-pyrido[2,3-d]pyrimidina-8(3,1)-azetidina-4(1,3)-benzenacyclotetradecaphane-1^6-yl)tetrahydro-2H-thiopyran-4-carbonitrile 1,1-dioxide] | < 1000 | < 500 | < 100 |  | < 50 |
